Laboratory results from paper PMC6271395, “Synthesis and Biological Activities of Some New (N^α-Dinicotinoyl)-bis-L-Leucyl Linear and Macrocyclic Peptides” (Molecules, 2014).

Key:
[1] = tested on: Bacillus subtilis; assay: Agar diffusion antimicrobial test, Bacillus subtilis; assay type: cell-based; settings: Gram+ve, modified Kirby–Bauer disk diffusion, 10 µg/mL
Description: (§1) The newly synthesized compounds 3–12 were tested for their preliminary antimicrobial activity against different microorganisms representing Gram-positive (Bacillus subtilis, Bacillus aureus and Staphylococcus aureus), Gram-negative bacteria (Escherichia coli), yeast (Candida albican) and fungi (Aspergillus niger).
(§2) The antimicrobial activities of the synthesized compounds were determined by the agar diffusion method as recommended by the national committee for clinical laboratory standards (NCCLS). The concentrations of the tested compounds (10 µg/mL) were used according to modified Kirby–Bauer’s disk diffusion method. The degree of inhibition is measured in comparison with that of chloramphinicol and fusidic acid taken as standards.

[2] = tested on: Escherichia coli; assay: Agar diffusion antimicrobial test, Escherichia coli; assay type: cell-based; settings: Gram−ve, modified Kirby–Bauer disk diffusion, 10 µg/mL
Description: as §1, §2

[3] = tested on: Bacillus aureus; assay: Agar diffusion antimicrobial test, Bacillus aureus; assay type: cell-based; settings: Gram+ve, modified Kirby–Bauer disk diffusion, 10 µg/mL
Description: as §1, §2

[4] = tested on: Staphylococcus aureus; assay: Agar diffusion antimicrobial test, Staphylococcus aureus; assay type: cell-based; settings: Gram+ve, modified Kirby–Bauer disk diffusion, 10 µg/mL
Description: as §1, §2

[5] = tested on: Aspergillus niger; assay: Agar diffusion antimicrobial test, Aspergillus niger; assay type: cell-based; settings: Fungi, modified Kirby–Bauer disk diffusion, 10 µg/mL
Description: as §1, §2

[6] = tested on: Candida albicans; assay: Agar diffusion antimicrobial test, Candida albicans; assay type: cell-based; settings: Yeast, modified Kirby–Bauer disk diffusion, 10 µg/mL
Description: as §1, §2

[7] = tested on: carrageenan-induced edema; assay: Carrageenan-induced edema (rat paw test); assay type: in vivo; settings: one hour before carrageenan, male albino rats, eight animals per group, paws excised four hours after drug administration
Description: (§3) For the determination of the antiphlogistic potency of the synthesized compounds, two standard tests were realized at a dose level 2.5 and 5 mg/kg body weight of the rats, namely the protection against carrageenan-induced edema according to Winter et al. and the inhibition of plasma PGE2. The latter is known as a good confirming indicator for carrageenan-induced rat paw edema. […] For these compounds, a similar activity profile was realized for the inhibition of plasma PGE2.
(§4) Groups of adult male albino rats (150–180 g), each of eight animals were orally dosed with tested compounds at a dose level of 2.5–5 mg/kg one hour before carrageenan challenge. Foot paw edema was induced by subplantar injection of 0.05 cm^3 of a 1% suspension of carrageenan in saline into the plantar tissue of one hind paw. An equal volume of saline was injected to the other hand paw and served as control. Four hours after drug administration the animals were decapitated, blood was collected, and the paws were rapidly excised. The average weight of edema was examined for the treated as well as the control group and the percentage inhibition of weight of edema was also evaluated. Diclofenac potassium (5 mg/kg) was employed as standard reference against which the tested compounds were compared (Table 2).

[8] = tested on: plasma PGE2; assay: Inhibition of plasma PGE2 (EIA) in carrageenan-challenged rats; assay type: in vivo, rat; settings: rats n = 8, blood four hours after drug administration, PGE2 EIA kit
Description: as §3, §4
Heparinized blood samples were collected from rats (n = 8), plasma was separated by centrifugation at 12,000 g for 2 min at […], immediately frozen, and stored at […] until use. The design correlate EIA prostaglandin E2 (PGE2) kit (Aldrich, Steinheim, Germany) is a competitive immuno assay for the quantitative determination of PGE2 in biological fluids. The kit uses a monoclonal antibody to PGE2 to bind, in a competitive manner, the PGE2 in the sample after a simultaneous incubation at room temperature. The excess reagents were washed away and the substrate was added, after a short incubation time the enzyme reaction was stopped, and the yellow color generated was read on a microplate reader DYNATech, MR 5000 at 405 nm (Dynatech Industries Inc., McLean, VA, USA). The intensity of the bound yellow color is inversely proportional to the concentration of PGE2 in either standard or samples.

| Molecule | Inhibition Zome, Bacillus subtilis [1] [cm] | Inhibition Zome, Escherichia coli [2] [cm] | Inhibition Zome, Bacillus aureus [3] [cm] | Inhibition Zome, Staphylococcus aureus [4] [cm] | Inhibition Zome, Aspergillus niger [5] [cm] | Inhibition Zome, Candida albicans [6] [cm] | % Protection against Edema ([7]; dose 2.5 mg/kg oral) [%] | % Protection against Edema ([7]; dose 5.0 mg/kg oral) [%] | % Inhibition of Plasma PGE2 ([8]; dose 2.5 mg/kg oral) [%] | % Inhibition of Plasma PGE2 ([8]; dose 5.0 mg/kg oral) [%] |
| --- | --- | --- | --- | --- | --- | --- | --- | --- | --- | --- |
| 2,6-Bis {N-[1-{(2E)-2-[1-(4-nitrophenyl)ethylidene]hydrazinyl}-4-methyl-1-oxopentan]-3-carboxamido}pyridine [Compound 9c] | 1.72 | 0.60 | 1.22 | 1.66 | 1.76 | – | – | – | – | – |
| 2,6-Bis {N-{(2R)-1-[2-(4-chlorobenzylidene)hydrazinyl]-4-methyl-1-oxopentan]-3-carboxamido}-pyridine [Compound 10e] | 1.65 | 0.78 | 1.96 | 1.80 | 1.48 | 0.94 | – | – | – | – |
| 2,6-Bis {N-{(2R)-1-[2-(4-methoxybenzylidene)hydrazinyl]-4-methyl-1-oxopentan]-3-carboxamido}-pyridine [Compound 10c] | 1.76 | 0.80 | 1.56 | 1.64 | 1.95 | 1.00 | – | – | – | – |
| 2,6-Bis {N-{(2R)-1-[2-(4-methylbenzylidene)hydrazinyl]-4-methyl-1-oxopentan]-3-carboxamido}-pyridine [Compound 10b] | 1.80 | 0.78 | 1.95 | 1.85 | 1.56 | 0.95 | – | – | – | – |
| 2,6-Bis[(N-[4-methyl-1-(1H-benzo[de]isoquinoline-1,3(2H)-dion)-pentan]-3-carboxamido]pyridine [Compound 8] | 1.90 | 0.90 | 1.94 | 1.95 | 2.00 | 0.98 | 78.88 ± 0.090 | 92.00 ± 0.060 | 57.57 ± 0.045 | 76.00 ± 0.035 |
| 2,6-Bis[(N-[4-methyl-1-(4,5,6,7-tetrachloro-1H-isoindole-1,3(2H)-dion)-pentan]-3-carboxamido]-pyridine [Compound 7b] | 1.46 | 0.66 | 1.80 | 1.45 | 1.95 | – | – | – | – | – |
| O=C(N[C@H](CO)[C@H](O)c1ccc([N+](=O)[O-])cc1)C(Cl)Cl [Chloramphenicol, reference compound] | 2.00 | 0.95 | 2.10 | 2.00 | – | – | – | – | – | – |
| COC(=O)[C@H](CC(C)C)NC(=O)c1cncc(C(=O)N[C@@H](CC(C)C)C(=O)OC)c1 [Compound 3, 3,5-Bis-(Methyl L-Leucenylcarbonyl)pyridine carboxylate] | 1.46 | 0.62 | 1.65 | 1.76 | 1.78 | – | 86.16 ± 0.052 | 98.18 ± 0.053 | 59.45 ± 0.050 | 81.10 ± 0.056 |
| CC(C)C[C@H](NC(=O)c1cncc(C(=O)N[C@@H](CC(C)C)C(=O)NN)c1)C(=O)NN [Compound 4, N^2,N^2′-(Pyridine-3,5-dicarbonyl)-di-L-leucyl hydrazide] | 1.85 | 0.80 | 1.92 | 1.80 | 1.56 | 0.92 | 93.45 ± 0.074 | 98.56 ± 0.060 | 75.66 ± 0.040 | 80.01 ± 0.058 |
| CC(C)C[C@H](NC(=O)c1cncc(C(=O)N[C@@H](CC(C)C)C(=O)O)c1)C(=O)O [Compound 5, N,N′-Bis(1-Carboxy-2-L-leucyl)-3,5-(diaminocarbonyl)pyridine] | 1.68 | 0.64 | 1.14 | 1.76 | 1.72 | – | 85.14 ± 0.056 | 96.18 ± 0.067 | 61.16 ± 0.041 | 77.14 ± 0.036 |
| COC(=O)[C@@H]1CCCCNC(=O)[C@H](CC(C)C)NC(=O)c2cncc(c2)C(=O)N[C@@H](CC(C)C)C(=O)N1 [Compound 6, Cyclo-(Na-dinicotinoyl)-bis-(L-leucyl)-L-lysine methyl ester] | 1.82 | 0.65 | 1.50 | 1.54 | 1.75 | – | 92.14 ± 0.076 | 99.08 ± 0.062 | 84.18 ± 0.052 | 86.01 ± 0.030 |
| CC(C)C[C@H](NC(=O)c1cncc(C(=O)N[C@@H](CC(C)C)C(=O)N/N=C/c2ccccc2)c1)C(=O)N/N=C/c1ccccc1 [Compound 10a] | 1.56 | 0.66 | 1.45 | 1.56 | 1.68 | – | 90.32 ± 0.035 | 99.10 ± 0.036 | 62.12 ± 0.051 | 83.01 ± 0.049 |
| CC(C)C[C@@H]1NC(=O)c2cncc(c2)C(=O)N[C@@H](CC(C)C)C(=O)NN2C(=O)c3ccc4c5c(ccc(c35)C2=O)C(=O)N(NC(=O)[C@H](CC(C)C)NC(=O)c2cncc(c2)C(=O)N[C@@H](CC(C)C)C(=O)NN2C(=O)c3ccc5c6c(ccc(c36)C2=O)C(=O)N(NC1=O)C5=O)C4=O [Compound 12] | 1.65 | 0.64 | 1.83 | 1.65 | 1.58 | – | 90.48 ± 0.090 | 99.36 ± 0.080 | 63.16 ± 0.036 | 86.18 ± 0.071 |
| O=C([O-])Cc1ccccc1Nc1c(Cl)cccc1Cl.[K+] [Diclofenac Potassium, reference compound] | – | – | – | – | – | – | 70.14 ± 0.064 | 75.23 ± 0.083 | 54.00 ± 0.041 | 70.00 ± 0.051 |
| CC(=O)O[C@H]1C[C@@]2(C)[C@@H](C[C@@H](O)[C@H]3[C@@]4(C)CC[C@@H](O)[C@@H](C)[C@@H]4CC[C@@]32C)/C1=C(\CCC=C(C)C)C(=O)O [Fusidic Acid, reference compound] | – | – | – | – | 1.9 | 1.9 | – | – | – | – |
